Measurements taken from patent EP0873137B1, “COMPOSITIONS INCLUDING CALCIUM INFLUX BLOCKERS FOR INHIBITING CELL GROWTH” (The Wellesley Hospital Foundation, priority 1996, dated 1997).

Assays:
32D-kit-Bcl-2 cells = experiment: Cell death assay (Trypan blue exclusion) in Bcl-2 over-expressing 32D-kit cells; assay type: cell-based; conditions: SLF plus 2.5, 5 or 10µM econazole; 18 hours; Figure 7B
Description: Figures 6A and 6B show the effect of ionomycin on apoptosis induced by SLF and Ca^2+ influx blacker. In Figure 6A, 32D-kit cells were incubated for 18 hours with 5µM econazole and the indicated amounts of ionomycin in the presence of either SLF (circles) or IL-3 (squares). In Figure 6B, 32D-kit-Bcl-2 cells were incubated for 18 hours with 5µM econazole and the indicated amounts of ionomycin in the presence of either SLF (circles) or IL-3 (squares). The proportion of dead cells was determined by Trypan Blue exclusion.
In additional cultures, IL-3 alone or no factor was added and cell viability was similarly tested. The effect on cell viability of adding 25 or 250 µM YVAD-CHO was also evaluated in separate cultures in which no additional factors were added.
Generation of Bcl-2 over-expressing 32D-kit cells. gp + e bcl-2 retroviral producer cells were a gift from Dr. Y. Ben-David (Toronto) and contain an LXSN-based retroviral vector expressing genes for both puromycin resistance and murine bcl-2. For infection, a confluent layer of gp + e packaging cells were co-cultured with 32D-kit cells for 24 hours. Non-adherent 32D-kit cells were then removed, cultured for 48 hours and then selected for bcl-2 over-expressing cells in the presence of 2µg/ml puromycin.
(§1) Cell death assays. 2.5 X 10^4 BMMCs, 32D-kit or P815 cells were placed in 96-well flat bottom plates in a volume of 0.1 ml RPMI containing 0.5% FBS. Cells were supplemented with either SLF, Substance P or IL3 plus Ca^2+ channel blocker. In the case of adding IgE, cells were incubated with 10 µg/ml SPE-7 for 45 minutes at 4°C followed by 3 washes with RPMI, 0.5% FBS before plating in 96 well plates and adding 100 ng/ml DNP-HSA. The proportion of dead cells was determined after 18 or 24 hours in culture by counting cells that could or could not exclude Trypan blue.

MDA-MB-231 cells = experiment: Cell death in autocrine stimulated MDA-MB-231 breast cancer cells; assay type: cell-based, human; conditions: 20µM econazole; Figure 9B
Description: Bar 1: control; Bar 2: 20µM econazole; Bar 3: 20µM econazole and 10µM YVAD-CHO (ICE inhibitor); Bar 4: 20µM econazole and 100 µM YVAD-CHO; Bar 5: 20µM econazole and 0.1 nM ionomycin (calcium ionophore); Bar 6: 20µM econazole and 10 nM ionomycin; Bar 7: 20µM econazole and 1 µM ionomycin; Bar 8: 20µM econazole and 10 µM oleic acid (PLC activation inhibitor); and Bar 9: 20µM econazole and 100 µM oleic acid.
(§2) Cells. Bone marrow derived mast cells (BMMC) were generated as described previously (Berger et al., 1994). They were cultured in OPTI-MEM (Gibco, Burlington, ON) supplemented with 10% heat-inactivated FBS and 2% WEHI-3 supernatant as a source of IL-3. 32D-kit cells (gift from Dr. Mark Minden, Ontario Cancer Institute) are an IL-3-dependent myelomonocytic cell line expressing c-kit (Hu et al., 1995). 32D-kit cells were grown in RPMI (Gibco) supplemented with 10% heat-inactivated FBS, 2% WEHI-3 supematant, and 1 mg/ml G418 (Gibco). The p815 cell line is a murine mastocytoma cell line. P815 cells were grown in RPMI supplemented with 10% heat-inactivated FBS. Bcl-2 gp+e NIH 3T3 packaging cells were grown in Dulbecco's modified Eagle's medium (DMEM - Gibco) and supplemented with 10% FBS and 2 µg/ml puromycin (Sigma, St. Louis, Mo). All cell cultures also contained 55µM β-mercaptoethanol and antibiotics (both Sigma). SK-BR3, MDA-MB231 and MCF-7 cells were obtained from ATCC. SK-BR3 and MDA-MB231 cells were cultured in RPMI medium supplemented with 10% heat inactivated fetal bovine serum. MCF-7 cells were cultured in DMEM medium supplemented with 10% heat inactivated fetal bovine serum and 10 µg/ml human insulin (Sigma).
The MDA-MB-231 cell line is a highly anaplastic carcinoma of the breast. it too is tumorigenic in nude mice but expresses only low levels of erbB2. However it is FGF^R positive and is stimulated in an autocrine fashion by bFGF (el Yazidi et al., 1995). Experiments were carried out to determine the susceptibility of MDA-MB-231 cells to a Ca^2+ influx blocker and the influence of oleic acid, ionomycin, and YVAD-CHO on induction of cell death by the blocker. The results are summarized together in Figure 9B.

[1] = tested on: Bone marrow derived mast cells (BMMC); experiment: Cell death assay (Trypan blue exclusion) in BMMC; assay type: cell-based; conditions: for cell death: 24 hours
Description: Cytotoxicity assays were performed as described in Materials and Methods. In Figures 1A to 1C, BMMCs were incubated with either SLF (500ng/ml in all cases) (circles) or IL-3 (25% WEHI-3 conditioned medium in all cases) (squares) with the indicated amounts of ketotifen (Figure 1A), econazole (Figure 1B) or Ni^2+ (Figure 1C). In Figure 1D, BMMCs were incubated with IL-3, and the indicated amounts of SLF. Plotted circles also included 2.5mM Ni^2+ and plotted squares included no Ni^2+. In Figure 1E, BMMCs were coated with IgE anti-DNP monoclonal SPE-7, then incubated with IL-3 plus the indicated amounts of DNP-HSA (Ag), with 5µM econazole (circles) or without econazole (squares). In Figure 1F, BMMCs were incubated with IL-3 plus the indicated amounts of Substance P, with 5µM econazole (circles) or without econazole (squares). In all cases, the proportion of dead cells was determined after 24 hours in culture by counting cells that could or could not exclude Trypan blue. Error bars represent the standard error determined from triplicate measurements.
as §2, §1

MCF-7 cells = experiment: Cell death (Trypan blue exclusion) in MCF-7 cells; assay type: cell-based, human; conditions: with versus without 10ng/ml EGF; 18 hours; Figure 10
Description: 2.5 X 10^4 MCF-7 cells were incubated in the wells of a 96-well plate in 0.1ml DMEM plus 0.5% FBS with (circles) or without (squares) 10ng/ml EGF and with the concentrations of econazole indicated for 18 hours. The proportion of dead cells was evaluated by Trypan Blue exclusion after 18 hours in culture.
as §2, with “MCF-7 cells were cultured in DMEM medium supplemented with 10% heat inactivated fetal bovine serum and 10 µg/ml human insulin (Sigma).” left out

NS1/Ag4 myeloma cells = conditions: at 1µg/ml; cited from earlier work
SK-BR3 cells = experiment: Cell death (Trypan blue exclusion) in SK-BR3 breast cancer cells; assay type: cell-based, human; conditions: with or without 10ng/ml EGF; 18 hours; Figure 9A
Description: as §2

BMMC = experiment: Analysis of DNA content (propidium iodide, flow cytometry) in BMMC; assay type: cell-based; conditions: 24 hours
Description: Analysis of DNA content. 1.25 X 10^6 cells were incubated for 18 or 24 hours as described above. Cells were spun down and resuspended in Vindelov's reagent: 3.4mM Tris - pH 8, 75 µM Propidium Iodide (from Sigma), 0.1% NP-40, 700 u/l RNAse (Sigma) and 10 mM NaCl. Cells were then analysed by flow cytometry.

With `Clc1ccc(COC(Cn2ccnc2)c2ccc(Cl)cc2Cl)cc1` (centres unmarked) [econazole] the “protection by Bcl-2 overexpression from induction of apoptosis” value (32D-kit-Bcl-2 cells) was “fails to protect”, the apoptosis (MDA-MB-231 cells) was “undergo apoptosis” and the cell death ([1]; co-incubated with SLF (500ng/ml), Figures 1A-C) was “converted to a death signal”. The cell viability ([1]; econazole alone, without antigenic stimulation) was “no effect on cell viability”, the cell death ([1]; stimulated with IgE plus antigen (DNP-HSA), with IL-3, 5µM econazole in Figure 1E) was “cell death is induced” and the cell death ([1]; stimulated with Substance P, IL-3, 5µM econazole) was “cell death is also induced”. The “sensitivity to cell death” value (MCF-7 cells) was “more sensitive”, the “cell viability and cell numbers” value (NS1/Ag4 myeloma cells) was “reduce cell viability and cell numbers” and the cell death (SK-BR3 cells) was “equivalent levels of death”. The “Sub G1 Content (%) 8µM econazole” value (BMMC; 8µM econazole plus IL-3 (25% WEHI conditioned media)) was 20.4% and the “Sub G1 Content (%) 8µM econazole” value (BMMC; 8µM econazole plus SLF (500ng/m.)) was 66.8%.
